In ChEMBL document CHEMBL1201862, “PubChem BioAssay data set” (2004):
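Five compound concentrations were applied to cells in 96-well plates for 48 hours; endpoints were derived by simple linear interpolation of the resulting dose-response curve. GI50 = concentration required for 50% inhibition of growth.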 The source made the active and inactive calls. Cut-off read from the data, not from the text of the source: active = GI50 up to about 1.1 µM and inactive = higher.

What was measured:
Assay in all cases: growth of human tumour cells (NCI), 48 h
[1] = system: SF-295
[2] = system: UACC-62
[3] = system: SF-539
[4] = system: MCF7
[5] = system: OVCAR-4
[6] = system: RXF 393
[7] = system: MDA-MB-231
[8] = system: NCI-H226
[9] = system: RPMI-8226
[10] = system: SR
[11] = system: SN12C
[12] = system: COLO 205
[13] = system: UACC-257
[14] = system: T47D
[15] = system: M14
[16] = system: SK-MEL-5
[17] = system: UO-31
[18] = system: NCI-H460
[19] = system: SK-MEL-2
[20] = system: 786-0
[21] = system: SF-268
[22] = system: SW-620
[23] = system: TK-10
[24] = system: HCC 2998
[25] = system: EKVX
[26] = system: KM12
[27] = system: A549
[28] = system: LOX IMVI
[29] = system: Hs-578T
[30] = system: HT-29
[31] = system: DU-145
[32] = system: NCI-H522
[33] = system: ACHN
[34] = system: NCI/ADR-RES
[35] = system: IGROV-1
[36] = system: OVCAR-5
[37] = system: U-251
[38] = system: MDA-N
[39] = system: HCT-15
[40] = system: SNB-75
[41] = system: SNB-19
[42] = system: HOP-62
[43] = system: MDA-MB-435
[44] = system: SK-MEL-28
[45] = system: OVCAR-8
[46] = system: A498
[47] = system: MOLT-4
[48] = system: NCI-H23
[49] = system: HL-60
[50] = system: OVCAR-3
[51] = system: K562
[52] = system: CCRF-CEM
[53] = system: Malme-3M
[54] = system: HCT-116
[55] = system: PC-3
[56] = system: SK-OV-3
[57] = system: HOP-92
[58] = system: CAKI-1

COc1cc(OC)c(NC2=NCCO2)cc1Cl
GI50 [1]: 82.8 µM (inactive)
GI50 [2]: 60.7 µM (inactive)
GI50 [3]: 25.5 µM (inactive)
GI50 [4]: 49.1 µM (inactive)
GI50 [5]: > 100 µM (inactive)
GI50 [6]: 46.1 µM (inactive)
GI50 [7]: 26.1 µM (inactive)
GI50 [8]: 25.7 µM (inactive)
GI50 [9]: 46.8 µM (inactive)
GI50 [10]: 27.4 µM (inactive)
GI50 [11]: 44.4 µM (inactive)
GI50 [12]: 18.8 µM (inactive)
GI50 [13]: 31 µM (inactive)
GI50 [14]: 54.5 µM (inactive)
GI50 [15]: 31.3 µM (inactive)
GI50 [16]: 23.1 µM (inactive)
GI50 [17]: 91.6 µM (inactive)
GI50 [18]: 21.2 µM (inactive)
GI50 [19]: 17.3 µM (inactive)
GI50 [20]: 30.1 µM (inactive)
GI50 [21]: 39.7 µM (inactive)
GI50 [22]: > 100 µM (inactive)
GI50 [23]: 60.3 µM (inactive)
GI50 [24]: 23.8 µM (inactive)
GI50 [25]: 61.9 µM (inactive)
GI50 [26]: 16.7 µM (inactive)
GI50 [27]: 46.3 µM (inactive)
GI50 [28]: 31.4 µM (inactive)
GI50 [29]: 61.7 µM (inactive)
GI50 [30]: 23.5 µM (inactive)
GI50 [31]: 38.2 µM (inactive)
GI50 [32]: 32.8 µM (inactive)
GI50 [33]: 64.7 µM (inactive)
GI50 [34]: 32.4 µM (inactive)
GI50 [35]: 38 µM (inactive)
GI50 [36]: 53.8 µM (inactive)
GI50 [37]: 39.7 µM (inactive)
GI50 [38]: 17.1 µM (inactive)
GI50 [39]: 33.9 µM
GI50 [40]: 35.6 µM (inactive)
GI50 [41]: > 100 µM (inactive)
GI50 [42]: 49.7 µM (inactive)
GI50 [43]: 20.1 µM (inactive)
GI50 [44]: 44 µM (inactive)
GI50 [45]: 83 µM (inactive)
GI50 [46]: 32.7 µM (inactive)
GI50 [47]: 44.2 µM (inactive)
GI50 [48]: 22.2 µM (inactive)
GI50 [49]: 43.3 µM (inactive)
GI50 [50]: 43.6 µM (inactive)
GI50 [51]: 83.9 µM (inactive)
GI50 [52]: 54 µM (inactive)
GI50 [53]: 68.7 µM (inactive)
GI50 [54]: 34.4 µM (inactive)
GI50 [55]: 24.3 µM (inactive)

CCN(CC)CC1CCCCN1CC(=O)N1c2ccccc2C(=O)Nc2cccnc21 (configuration not stated) [OTENZEPAD]
GI50 [1]: > 100 µM (inactive)
GI50 [2]: 91.4 µM (inactive)
GI50 [3]: 40.6 µM (inactive)
GI50 [4]: 27.9 µM (inactive)
GI50 [5]: 38.9 µM (inactive)
GI50 [6]: > 100 µM (inactive)
GI50 [7]: 32.1 µM (inactive)
GI50 [8]: 41 µM (inactive)
GI50 [9]: 35.6 µM (inactive)
GI50 [10]: 28.1 µM (inactive)
GI50 [11]: 50.9 µM (inactive)
GI50 [12]: 23.2 µM (inactive)
GI50 [13]: 38.1 µM (inactive)
GI50 [14]: > 100 µM (inactive)
GI50 [15]: 68.9 µM (inactive)
GI50 [16]: > 100 µM (inactive)
GI50 [17]: 1.97 µM (inactive)
GI50 [18]: 59.3 µM (inactive)
GI50 [19]: > 100 µM (inactive)
GI50 [20]: 35.4 µM (inactive)
GI50 [21]: 59.2 µM (inactive)
GI50 [22]: 36.7 µM (inactive)
GI50 [23]: > 100 µM (inactive)
GI50 [24]: > 100 µM (inactive)
GI50 [25]: > 100 µM (inactive)
GI50 [26]: 66.7 µM (inactive)
GI50 [27]: 17 µM (inactive)
GI50 [28]: 18.3 µM (inactive)
GI50 [29]: 93.1 µM (inactive)
GI50 [30]: 21.8 µM (inactive)
GI50 [31]: > 100 µM (inactive)
GI50 [32]: > 100 µM (inactive)
GI50 [33]: 56 µM (inactive)
GI50 [34]: 20.8 µM (inactive)
GI50 [35]: > 100 µM (inactive)
GI50 [36]: 83.2 µM (inactive)
GI50 [37]: 60.5 µM (inactive)
GI50 [38]: 66.2 µM (inactive)
GI50 [39]: 38.6 µM
GI50 [40]: 99.1 µM (inactive)
GI50 [41]: > 100 µM (inactive)
GI50 [42]: 34.7 µM (inactive)
GI50 [43]: 63 µM (inactive)
GI50 [44]: > 100 µM (inactive)
GI50 [45]: 45.4 µM (inactive)
GI50 [46]: > 100 µM (inactive)
GI50 [47]: 21 µM (inactive)
GI50 [48]: 52 µM (inactive)
GI50 [56]: > 100 µM (inactive)
GI50 [49]: 17.4 µM (inactive)
GI50 [50]: > 100 µM (inactive)
GI50 [52]: 19 µM (inactive)
GI50 [57]: > 100 µM (inactive)
GI50 [53]: > 100 µM (inactive)
GI50 [54]: 12.2 µM (inactive)
GI50 [58]: > 100 µM (inactive)
GI50 [55]: 36.8 µM (inactive)
